The values that follow come from BindingDB's records for doi:10.1021/ml200284s (2012).

The nature of the assay: Inhibition of dynamin1-mediated endocytosis in human U2OS cells assessed as inhibition of Texas red-Tf uptake incubated for 30 mins prior to Texas red-Tf addition measured after 8 mins by receptor-mediated endocytosis assay.

A value given as a limit tells only on which side of the number the result lay.

For orientation: IC50 means the midpoint of a concentration-inhibition curve. With `C=CCN1C(=O)/C(=C/c2ccc(OCCCN(C)C)cc2)SC1=S`, the 50% inhibitory concentration (IC50) turned out to be 5.9 µM.

Turning to `O=C(O)CN1C(=O)/C(=C/c2csc3ccc(Cl)cc23)SC1=S`, the concentration for half-maximal inhibition (IC50) was greater than 100 µM.

On to `O=C1N=C(S)SC1=Cc1cc(Cl)cc(Cl)c1`, for which the IC50 was 18.1 µM.
